From patent US8404708B2, “Dual NK1/NK3 receptor antagonists” (Hoffmann-La Roche Inc., priority 2004, dated 2013)
pKi: −log10 of the molar value. Where two headings read alike, the source gives them in different places.

What was measured:
[1] = target: human NK1 receptor (Homo sapiens, UniProt P25103); assay: NK1 receptor binding, [3H]substance P displacement, CHO cell membranes; conditions: for pKi: first value of the cell pKi NK1/NK3, human NK1 receptor, [3H]substance P; for Ki: first value of the cell NK1/NK3, read-out: pKi NK1 (converted)
Chain of human NK1 receptor (P25103 whole entry): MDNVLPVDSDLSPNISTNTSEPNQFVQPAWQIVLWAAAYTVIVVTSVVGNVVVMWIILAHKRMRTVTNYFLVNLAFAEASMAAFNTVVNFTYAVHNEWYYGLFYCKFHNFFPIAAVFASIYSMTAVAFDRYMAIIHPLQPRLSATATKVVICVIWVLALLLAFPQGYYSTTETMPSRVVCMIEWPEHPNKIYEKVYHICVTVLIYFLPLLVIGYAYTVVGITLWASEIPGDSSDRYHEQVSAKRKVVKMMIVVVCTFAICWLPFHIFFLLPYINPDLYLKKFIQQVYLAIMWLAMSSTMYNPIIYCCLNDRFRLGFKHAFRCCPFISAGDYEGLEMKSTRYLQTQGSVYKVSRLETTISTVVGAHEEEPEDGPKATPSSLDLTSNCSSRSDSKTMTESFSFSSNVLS

[2] = target: T1, Recombinant human NK3 (hNK3) receptor (Homo sapiens, UniProt P29371); assay: NK3 receptor binding, [3H]SR142801 displacement, membrane preparations; conditions: for pKi: second value of the cell pKi NK1/NK3, hNK3 receptor, [3H]SR142801; for Ki: second value of the cell NK1/NK3, read-out: pKi NK3 (converted)
T1 construct: expressed in transfected cells
T1 sequence (P29371 1-465): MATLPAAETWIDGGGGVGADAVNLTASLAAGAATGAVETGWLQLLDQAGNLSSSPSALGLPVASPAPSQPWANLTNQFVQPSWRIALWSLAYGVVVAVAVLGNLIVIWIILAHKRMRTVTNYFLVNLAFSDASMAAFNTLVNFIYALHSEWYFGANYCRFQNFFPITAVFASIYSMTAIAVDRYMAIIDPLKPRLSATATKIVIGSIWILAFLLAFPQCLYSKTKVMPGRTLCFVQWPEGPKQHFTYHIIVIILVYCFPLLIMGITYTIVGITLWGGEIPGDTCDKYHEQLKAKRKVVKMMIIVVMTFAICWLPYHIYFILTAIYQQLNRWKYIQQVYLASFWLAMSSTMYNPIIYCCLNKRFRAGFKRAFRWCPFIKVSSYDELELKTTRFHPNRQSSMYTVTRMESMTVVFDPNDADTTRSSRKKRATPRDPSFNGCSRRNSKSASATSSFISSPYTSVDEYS
How it was run: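 Incubation ran 90 min at room temperature in 50 mM Tris-HCl pH 7.4 with 0.1% BSA, 4 mM MnCl2 and 1 μM phosphoramidon, using about 2.5 μg hNK3 membrane protein per well. Nonspecific binding was defined with 10 μM SB222200, and bound radioactivity was collected on PEI-soaked GF/C filters for scintillation counting.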

Row | SMILES | pKi [1] | pKi [2] | Ki [1] | Ki [2]
1 | CN(C)c1ccc(-c2cc(N3C[C@H](O)C[C@H]3CO)ncc2N(C)C(=O)C(C)(C)c2cc(C(F)(F)F)cc(C(F)(F)F)c2)cc1 [Example 204, (2S,4R)-2-(3,5-Bis-trifluoromethyl-phenyl)-N-[4-(4-dimethylamino-phenyl)-6-(4-hydroxy-2-hydroxymethyl-pyrrolidin-1-yl)-pyridin-3-yl]-N-methyl-isobutyramide] | 7.82 | 7.83 | – | –
2 | CN(C(=O)C(C)(C)c1cc(C(F)(F)F)cc(C(F)(F)F)c1)c1cnc(N2C[C@H](O)C[C@H]2CO)cc1-c1ccccc1N [Example 213, (2S,4R)-N-[4-(2-Amino-phenyl)-6-(4-hydroxy-2-hydroxymethyl-pyrrolidin-1-yl)-pyridin-3-yl]-2-(3,5-bis-trifluoromethyl-phenyl)-N-methyl-isobutyramide] | – | – | 0.661 nM | 3.24 nM
3 | COc1ccccc1-c1cc(N2C[C@H](O)C[C@H]2CO)ncc1N(C)C(=O)C(C)(C)c1cc(C(F)(F)F)cc(C(F)(F)F)c1 [Example 214, (2S,4R)-2-(3,5-Bis-trifluoromethyl-phenyl)-N-[6-(4-hydroxy-2-hydroxymethyl-pyrrolidin-1-yl)-4-(2-methoxy-phenyl)-pyridin-3-yl]-N-methyl-isobutyramide] | – | – | 1.02 nM | 2.75 nM
4 | CN(C(=O)C(C)(C)c1cc(C(F)(F)F)cc(C(F)(F)F)c1)c1cnc(N2C[C@H](O)C[C@H]2CO)cc1-c1ccccc1O [Example 215, (2S,4R)-2-(3,5-Bis-trifluoromethyl-phenyl)-N-[6-(4-hydroxy-2-hydroxymethyl-pyrrolidin-1-yl)-4-(2-hydroxy-phenyl)-pyridin-3-yl]-N-methyl-isobutyramide] | – | – | 1.02 nM | 4.47 nM
5 | Cc1ccccc1-c1cc(N2C[C@H](O)C[C@H]2CO)ncc1N(C)C(=O)C(C)(C)c1cc(C(F)(F)F)cc(C(F)(F)F)c1 [Example 216, (2S,4R)-2-(3,5-Bis-trifluoromethyl-phenyl)-N-[6-(4-hydroxy-2-hydroxymethyl-pyrrolidin-1-yl)-4-o-tolyl-pyridin-3-yl]-N-methyl-isobutyramide] | – | – | 1.35 nM | 0.794 nM
6 | CSc1ccccc1-c1cc(N2C[C@H](O)C[C@H]2CO)ncc1N(C)C(=O)C(C)(C)c1cc(C(F)(F)F)cc(C(F)(F)F)c1 [Example 217, (2S,4R)-2-(3,5-Bis-trifluoromethyl-phenyl)-N-[6-(4-hydroxy-2-hydroxymethyl-pyrrolidin-1-yl)-4-(2-methylsulfanyl-phenyl)-pyridin-3-yl]-N-methyl-isobutyramide] | – | – | 1.05 nM | 2.4 nM
7 | CN(C(=O)C(C)(C)c1cc(C(F)(F)F)cc(C(F)(F)F)c1)c1cnc(N2C[C@H](O)C[C@H]2CO)cc1-c1ccccc1S(C)(=O)=O [Example 218, (2S,4R)-2-(3,5-Bis-trifluoromethyl-phenyl)-N-[6-(4-hydroxy-2-hydroxymethyl-pyrrolidin-1-yl)-4-(2-methanesulfonyl-phenyl)-pyridin-3-yl]-N-methyl-isobutyramide] | – | – | 2.63 nM | 7.24 nM
8 | CN(C(=O)C(C)(C)c1cc(C(F)(F)F)cc(C(F)(F)F)c1)c1cnc(N2C[C@H](O)C[C@H]2CO)cc1-c1ccccc1C(N)=O [Example 219, (2S,4R)-2-[5-{[2-(3,5-Bis-trifluoromethyl-phenyl)-2-methyl-propionyl]-methyl-amino}-2-(4-hydroxy-2-hydroxymethyl-pyrrolidin-1-yl)-pyridin-4-yl]-benzamide] | – | – | 1.45 nM | 20.4 nM

Now from value to molecule:

Row | pKi [1] | pKi [2] | Ki [1] | Ki [2] | SMILES
9 | 8.71 | 8.07 | – | – | CN(C(=O)C(C)(C)c1cc(C(F)(F)F)cc(C(F)(F)F)c1)c1cnc(N2C[C@H](O)C[C@H]2CO)cc1-c1cccc(Br)c1 [Example 205, (2S,4R)-2-(3,5-Bis-trifluoromethyl-phenyl)-N-[4-(3-bromo-phenyl)-6-(4-hydroxy-2-hydroxymethyl-pyrrolidin-1-yl)-pyridin-3-yl]-N-methyl-isobutyramide]
10 | 8.73 | 7.80 | – | – | CN(C(=O)C(C)(C)c1cc(C(F)(F)F)cc(C(F)(F)F)c1)c1cnc(N2C[C@H](O)C[C@H]2CO)cc1-c1cccc(Cl)c1 [Example 206, (2S,4R)-2-(3,5-Bis-trifluoromethyl-phenyl)-N-[4-(3-chloro-phenyl)-6-(4-hydroxy-2-hydroxymethyl-pyrrolidin-1-yl)-pyridin-3-yl]-N-methyl-isobutyramide]
11 | – | – | 1.38 nM | 4.68 nM | CN(C(=O)C(C)(C)c1cc(C(F)(F)F)cc(C(F)(F)F)c1)c1cnc(N2C[C@H](O)C[C@H]2CO)cc1-c1cccc(F)c1 [Example 207, (2S,4R)-2-(3,5-Bis-trifluoromethyl-phenyl)-N-[4-(3-fluoro-phenyl)-6-(4-hydroxy-2-hydroxymethyl-pyrrolidin-1-yl)-pyridin-3-yl]-N-methyl-isobutyramide]
12 | – | – | 1.35 nM | 6.17 nM | CN(C(=O)C(C)(C)c1cc(C(F)(F)F)cc(C(F)(F)F)c1)c1cnc(N2C[C@H](O)C[C@H]2CO)cc1-c1cc(F)cc(F)c1 [Example 208, (2S,4R)-2-(3,5-Bis-trifluoromethyl-phenyl)-N-[4-(3,5-difluoro-phenyl)-6-(4-hydroxy-2-hydroxymethyl-pyrrolidin-1-yl)-pyridin-3-yl]-N-methyl-isobutyramide]
13 | – | – | 1.35 nM | 3.47 nM | CN(C(=O)C(C)(C)c1cc(C(F)(F)F)cc(C(F)(F)F)c1)c1cnc(N2C[C@H](O)C[C@H]2CO)cc1-c1ccc(F)c(F)c1 [Example 209, (2S,4R)-2-(3,5-Bis-trifluoromethyl-phenyl)-N-[4-(3,4-difluoro-phenyl)-6-(4-hydroxy-2-hydroxymethyl-pyrrolidin-1-yl)-pyridin-3-yl]-N-methyl-isobutyramide]
14 | – | – | 2.29 nM | 13.8 nM | Cc1ccc(-c2cc(N3C[C@H](O)C[C@H]3CO)ncc2N(C)C(=O)C(C)(C)c2cc(C(F)(F)F)cc(C(F)(F)F)c2)cc1F [Example 210, (2S,4R)-2-(3,5-Bis-trifluoromethyl-phenyl)-N-[4-(3-fluoro-4-methyl-phenyl)-6-(4-hydroxy-2-hydroxymethyl-pyrrolidin-1-yl)-pyridin-3-yl]-N-methyl-isobutyramide]
15 | – | – | 1.66 nM | 15.5 nM | Cc1cc(-c2cc(N3C[C@H](O)C[C@H]3CO)ncc2N(C)C(=O)C(C)(C)c2cc(C(F)(F)F)cc(C(F)(F)F)c2)ccc1F [Example 211, (2S,4R)-2-(3,5-Bis-trifluoromethyl-phenyl)-N-[4-(4-fluoro-3-methyl-phenyl)-6-(4-hydroxy-2-hydroxymethyl-pyrrolidin-1-yl)-pyridin-3-yl]-N-methyl-isobutyramide]
16 | – | – | 0.813 nM | 2.51 nM | CN(C(=O)C(C)(C)c1cc(C(F)(F)F)cc(C(F)(F)F)c1)c1cnc(N2C[C@H](O)C[C@H]2CO)cc1-c1ccc(F)c(Cl)c1 [Example 212, (2S,4R)-2-(3,5-Bis-trifluoromethyl-phenyl)-N-[4-(3-chloro-4-fluoro-phenyl)-6-(4-hydroxy-2-hydroxymethyl-pyrrolidin-1-yl)-pyridin-3-yl]-N-methyl-isobutyramide]
17 | – | – | 1.51 nM | 6.61 nM | CN(C(=O)C(C)(C)c1cc(C(F)(F)F)cc(C(F)(F)F)c1)c1cnc(N2C[C@H](O)C[C@H]2CO)cc1-c1ccc(F)cc1F [Example 220, (2S,4R)-2-(3,5-Bis-trifluoromethyl-phenyl)-N-[4-(2,4-difluoro-phenyl)-6-(4-hydroxy-2-hydroxymethyl-pyrrolidin-1-yl)-pyridin-3-yl]-N-methyl-isobutyramide]
